Patent publication US20260262643A1, “HERBICIDAL BENZOXAZINES” (FMC CORPORATION, priority 2022, published 2026)

Columns and labels:
[1] = tested on: oat, wild; test: Test C postemergence; format: in vivo, Avena fatua; details: 10 days
Procedure, shortened: (§1)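 Soil-applied (pre) and foliar (post, 1–2 leaf, 2–10 cm) sprays; surfactant-containing non-phytotoxic solvent vehicle; loam/sand substrate. Readout: visual % control at 10 d, greenhouse, versus untreated.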

[2] = tested on: wheat; test: Test C postemergence; format: in vivo, Triticum aestivum; details: 10 days
Procedure, shortened: as §1

[3] = tested on: soybean; test: Test C postemergence; format: in vivo, Glycine max; details: 10 days
Procedure, shortened: as §1

[4] = tested on: kochia; test: Test C preemergence; format: in vivo, Bassia scoparia; details: 0 to 100 scale (0 no effect, 100 complete control); for Kochia plant response rating: preemergence
Procedure, shortened: as §1

[5] = tested on: green foxtail; test: Test C preemergence; format: in vivo, Setaria viridis; details: 0 to 100 scale (0 no effect, 100 complete control); for Foxtail, Green plant response rating: preemergence
Procedure, shortened: as §1

[6] = tested on: rice; test: Test D flooded paddy test; format: in vivo, Oryza sativa; details: 250 g ai/ha, applied to paddy water, visual rating after 13 to 14 days, scale 0 to 100 (0 no effect, 100 complete control)
Procedure, shortened: (§2)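 Plants at the 2-leaf stage were grown in pots flooded to 3 cm, and compound was applied directly into the paddy water, with depth kept throughout. After 13–14 days in a greenhouse, injury was rated visually against untreated controls on a 0–100 scale (100 = complete control); a dash means not tested.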

[7] = tested on: kochia; test: Test C postemergence; format: in vivo, Bassia scoparia; details: 10 days
Procedure, shortened: as §1

[8] = tested on: ragweed; test: Test C preemergence; format: in vivo, Ambrosia artemisiifolia; details: 0 to 100 scale (0 no effect, 100 complete control); for Ragweed plant response rating: preemergence
Procedure, shortened: as §1

[9] = tested on: soybean; test: Test C preemergence; format: in vivo, Glycine max; details: 0 to 100 scale (0 no effect, 100 complete control); for Soybean plant response rating: preemergence
Procedure, shortened: as §1

[10] = tested on: corn; test: Test C preemergence; format: in vivo, Zea mays; details: 0 to 100 scale (0 no effect, 100 complete control); for Corn plant response rating: preemergence
Procedure, shortened: as §1

[11] = tested on: blackgrass; test: Test C postemergence; format: in vivo, Alopecurus myosuroides; details: 10 days
Procedure, shortened: as §1

[12] = tested on: pigweed, palmer; test: Test C postemergence; format: in vivo, Amaranthus palmeri; details: 10 days
Procedure, shortened: as §1

[13] = tested on: wheat; test: Test C preemergence; format: in vivo, Triticum aestivum; details: 0 to 100 scale (0 no effect, 100 complete control); for Wheat plant response rating: preemergence
Procedure, shortened: as §1

[14] = tested on: oat, wild; test: Test C preemergence; format: in vivo, Avena fatua; details: 0 to 100 scale (0 no effect, 100 complete control)
Procedure, shortened: as §1

[15] = tested on: corn; test: Test C postemergence; format: in vivo, Zea mays; details: 10 days
Procedure, shortened: as §1

[16] = tested on: ryegrass, Italian; test: Test C preemergence; format: in vivo, Lolium multiflorum; details: 0 to 100 scale (0 no effect, 100 complete control); for Ryegrass, Italian plant response rating: preemergence
Procedure, shortened: as §1

[17] = tested on: ragweed; test: Test C postemergence; format: in vivo, Ambrosia artemisiifolia; details: 10 days
Procedure, shortened: as §1

[18] = tested on: sedge, umbrella; test: Test D flooded paddy test; format: in vivo, Cyperus difformis; details: 250 g ai/ha, applied to paddy water, visual rating after 13 to 14 days, scale 0 to 100 (0 no effect, 100 complete control)
Procedure, shortened: as §2

[19] = tested on: ryegrass, Italian; test: Test C postemergence; format: in vivo, Lolium multiflorum; details: 10 days
Procedure, shortened: as §1

[20] = tested on: blackgrass; test: Test C preemergence; format: in vivo, Alopecurus myosuroides; details: 0 to 100 scale (0 no effect, 100 complete control); for Blackgrass plant response rating: preemergence
Procedure, shortened: as §1

[21] = tested on: ducksalad; test: Test D flooded paddy test; format: in vivo, Heteranthera limosa; details: 250 g ai/ha, applied to paddy water, visual rating after 13 to 14 days, scale 0 to 100 (0 no effect, 100 complete control)
Procedure, shortened: as §2

[22] = tested on: pigweed, palmer; test: Test C preemergence; format: in vivo, Amaranthus palmeri; details: 0 to 100 scale (0 no effect, 100 complete control); for Pigweed, Palmer plant response rating: preemergence
Procedure, shortened: as §1

[23] = tested on: horseweed; test: Test C postemergence; format: in vivo, Erigeron canadensis; details: 10 days
Procedure, shortened: as §1

[24] = tested on: barnyardgrass; test: Test D flooded paddy test; format: in vivo, Echinochloa crus-galli; details: 250 g ai/ha, applied to paddy water, visual rating after 13 to 14 days, scale 0 to 100 (0 no effect, 100 complete control)
Procedure, shortened: as §2

[25] = tested on: barnyardgrass; test: Test C preemergence; format: in vivo, Echinochloa crusgalli; details: 0 to 100 scale (0 no effect, 100 complete control); for Barnyardgrass plant response rating: preemergence
Procedure, shortened: as §1

[26] = tested on: barnyardgrass; test: Test C postemergence; format: in vivo, Echinochloa crusgalli; details: 10 days
Procedure, shortened: as §1

[27] = tested on: green foxtail; test: Test C postemergence; format: in vivo, Setaria viridis; details: 10 days
Procedure, shortened: as §1

[28] = tested on: galium; test: Test C postemergence; format: in vivo, Galium aparine; details: postemergence, 10 days
Procedure, shortened: as §1

[29] = 125 g ai/ha, postemergence, 0 to 100 scale, 0 no effect, 100 complete control
[30] = Postemergence, 500 g ai/ha, visual 0 to 100 scale (0 no effect, 100 complete control)
[31] = Preemergence, 500 g ai/ha, visual rating after 10 days
[32] = 500 g ai/ha, postemergence, 0 to 100 scale (0 no effect, 100 complete control)

COc1cc(C(=O)N2C[C@H](C)Oc3c(Cl)cccc32)cc(-n2cnc(C3CCC3)n2)c1 [Compound 214]
50: Barnyardgrass plant response rating ([25]; Test C, 125 g ai/ha)
30: Plant response rating, Wheat [2, 30] | Soybean plant response rating ([9]; Test C, 125 g ai/ha) | Plant response rating, Wheat [13, 31] | Plant response rating, Foxtail, Green [27, 29]
20: Plant response rating, Oat, Wild [1, 29] | Plant response rating, Oat, Wild [1, 30] | Plant response rating, Wheat [2, 29] | Plant response rating, Corn [10, 31] | Plant response rating, Ryegrass, Italian [19, 29] | Blackgrass plant response rating ([20]; Test C, 125 g ai/ha) | Plant response rating, Barnyardgrass [26, 29] | Plant response rating, Barnyardgrass [26, 30]
40: Plant response rating, Ragweed [17, 29] | Plant response rating, Ragweed [17, 30] | Plant response rating, Ryegrass, Italian [19, 30] | Plant response rating, Horseweed [23, 30]
70: Plant response rating, Kochia [7, 29] | Plant response rating, Corn [15, 30] | Plant response rating, Blackgrass [20, 31] | Plant response rating, Ducksalad (Flood) [21]
0: Plant response rating, Rice (Flood) [6] | Plant response rating, Ragweed [8, 31] | Plant response rating, Blackgrass [11, 29] | Oat, Wild plant response rating ([14]; Test C, preemergence, 125 g ai/ha) | Plant response rating, Horseweed [23, 29] | Plant response rating, Barnyardgrass (Flood) [24]
90: Kochia plant response rating ([4]; Test C, 125 g ai/ha) | Plant response rating, Ryegrass, Italian [16, 31] | Plant response rating, Sedge, Umbrella (Flood) [18]
60: Plant response rating, Corn [15, 29]
100: Plant response rating, Soybean [3, 29] | Plant response rating, Soybean [3, 30] | Plant response rating, Kochia [4, 31] | Plant response rating, Foxtail, Green [5, 31] | Foxtail, Green plant response rating ([5]; Test C, 125 g ai/ha) | Plant response rating, Kochia [7, 30] | Plant response rating, Pigweed, Palmer [12, 29] | Plant response rating, Pigweed, Palmer [12, 30] | Plant response rating, Pigweed, Palmer [22, 31] | Pigweed, Palmer plant response rating ([22]; Test C, 125 g ai/ha) | Plant response rating, Barnyardgrass [25, 31]
10: Ragweed plant response rating ([8]; Test C, 125 g ai/ha) | Corn plant response rating ([10]; Test C, 125 g ai/ha) | Wheat plant response rating ([13]; Test C, 125 g ai/ha)
80: Plant response rating, Soybean [9, 31] | Plant response rating, Blackgrass [11, 30] | Plant response rating, Oat, Wild [14, 31] | Ryegrass, Italian plant response rating ([16]; Test C, 125 g ai/ha) | Plant response rating, Foxtail, Green [27, 30]

CCOCc1ncn(-c2ccc(C)c(C(=O)N3C[C@H](C)Oc4c(Cl)cccc43)c2)n1 [Compound 294]
80: Kochia plant response rating ([4]; 500 g ai/ha) | Plant response rating, Blackgrass [11, 32]
60: Plant response rating, Kochia [7, 29] | Plant response rating, Kochia [7, 32] | Plant response rating, Pigweed, Palmer [12, 32] | Pigweed, Palmer plant response rating ([22]; Test C, 125 g ai/ha)
10: Plant response rating, Oat, Wild [1, 29] | Plant response rating, Oat, Wild [1, 32] | Plant response rating, Wheat [2, 29] | Plant response rating, Barnyardgrass [26, 29] | Plant response rating, Foxtail, Green [27, 29]
70: Plant response rating, Ragweed [17, 32] | Blackgrass plant response rating ([20]; Test C, 125 g ai/ha) | Plant response rating, Horseweed [23, 32] | Plant response rating, Foxtail, Green [27, 32]
40: Plant response rating, Wheat [2, 32] | Plant response rating, Pigweed, Palmer [12, 29] | Plant response rating, Ryegrass, Italian [19, 29] | Barnyardgrass plant response rating ([25]; Test C, 125 g ai/ha)
0: Plant response rating, Rice (Flood) [6] | Ragweed plant response rating ([8]; 500 g ai/ha) | Ragweed plant response rating ([8]; Test C, 125 g ai/ha) | Wheat plant response rating ([13]; Test C, 125 g ai/ha) | Plant response rating, Sedge, Umbrella (Flood) [18] | Plant response rating, Ducksalad (Flood) [21] | Plant response rating, Barnyardgrass (Flood) [24]
90: Plant response rating, Soybean [3, 29] | Plant response rating, Galium ([28]; 500 g ai/ha, 0 to 100 scale (0 no effect, 100 complete control)) | Foxtail, Green plant response rating ([5]; Test C, 125 g ai/ha) | Soybean plant response rating ([9]; 500 g ai/ha) | Plant response rating, Corn [15, 32] | Ryegrass, Italian plant response rating ([16]; Test C, 125 g ai/ha) | Plant response rating, Ryegrass, Italian [19, 32] | Blackgrass plant response rating ([20]; 500 g ai/ha) | Pigweed, Palmer plant response rating ([22]; 500 g ai/ha)
100: Plant response rating, Soybean [3, 32] | Plant response rating, Galium ([28]; 125 g ai/ha, 0 to 100 scale, 0 no effect, 100 complete control) | Foxtail, Green plant response rating ([5]; 500 g ai/ha) | Ryegrass, Italian plant response rating ([16]; 500 g ai/ha) | Barnyardgrass plant response rating ([25]; 500 g ai/ha)
30: Plant response rating, Blackgrass [11, 29] | Plant response rating, Corn [15, 29] | Plant response rating, Horseweed [23, 29]
50: Corn plant response rating ([10]; 500 g ai/ha) | Corn plant response rating ([10]; Test C, 125 g ai/ha) | Plant response rating, Ragweed [17, 29] | Plant response rating, Barnyardgrass [26, 32]
20: Kochia plant response rating ([4]; Test C, 125 g ai/ha) | Soybean plant response rating ([9]; Test C, 125 g ai/ha) | Wheat plant response rating ([13]; 500 g ai/ha)
